According to patent US10266482B2, “Long-term memory inducing agent” (NATIONAL UNIVERSITY CORPORATION TOKYO MEDICAL AND DENTAL …, priority 2017, dated 2019):

Tests used:
[1] = Measurement of brain AMK level after intraperitoneal administration; assay type: in vivo, ICR mice; settings: 1 mg/kg bw intraperitoneal
Procedure: 8-week-old male ICR mice were purchased. Each of the experiment individuals was raised in an individual cage, and adapted to the raising environment for at least a week before use. The rearing room was kept at 22° C. at cycles of 12 hours of light period/12 hours of dark period, and feed and drinking water were given freely. All of the experiments were conducted during the latter 6 hours of the light period.
N(1)-acetyl-5-methoxykynuramine (AMK) was used as a drug. AMK was diluted with physiological saline. In the administration experiment, a dosage of 0.001 mg-1 mg/3.65 ml/kg bw was intraperitoneally administered.
1 mg/kg bw of AMK was intraperitoneally administered, and 5, 15, 30, 60, 120 and 240 minutes later, the hippocampus and a region including the perirhinal cortex of the temporal lobe that was assumed to be involved in object recognition memory were collected to measure the AMK levels with a high-performance liquid chromatograph mass spectrometer. As a control group, AMK levels in untreated individuals were also measured

[2] = tested on: young crickets; assay: Olfactory associative learning test in young crickets (single-time training, memory a day after); assay type: in vivo, Gryllus bimaculatus
Procedure: Male crickets about one week old (young) or three week old (aged) following molting into adult forms were used. Each of the crickets was placed into a 100 ml beaker three days before the experiment, and deprived of water for 2-3 days to enhance the desire of taking water. As the feed, about 10 pieces of insect feed were placed into the beaker.
A 1-ml syringe was used for smell and reward associative conditioning upon learning/training. The syringe contained water as the reward while a piece of paper (3 mm×3 mm) perfumed with peppermint essence was pierced into the needle to about 1 cm from the tip thereof. In this learning/training, the filter paper on the needle was brought near the antennae of the cricket to allow it to smell for 3 seconds and then a drop of water was put out from the tip of the needle and applied to the mouth of the cricket. When the associative conditioning was conducted for four times, the conditionings were conducted at intervals of 5 minutes.
Smell preference was examined by placing each cricket into a test arena. The arena consisted of a “standby chamber” and a “test chamber”. The floor of the “test chamber” had two holes each with a diameter of 4 cm which were communicated with two smell sources. The smell source was a plastic pot containing filter paper perfumed with essence of a smell (peppermint or vanilla) and covered with a gauze lid. In the preference test, each cricket was placed into the test chamber and allowed to walk freely for 4 minutes to search for the two smell sources. Two minutes after the start of the test, a rotary board having the smell sources was rotated to reverse the positions of the vanilla and the peppermint smells. During the test, the time the cricket spent placing its mouth to the gauze of the smell source was measured as a visiting time to the smell source, and the ratio of the visiting times of the two types of smells (PI value: preference index) was calculated according to the following formula to assess the relative preference to the mint smell. PI value=Tp/(Tp+Tv)×100 • Tp: Searching time for smell associated with the reward (peppermint) • Tv: Searching time for smell not associated with the reward (vanilla)
If the preferences for the two smells are equivalent, PI will be 50. Since crickets inherently prefer vanilla smell over peppermint smell, an average PI value prior to the learning/training is usually 25-35, The preference test was conducted before and after the learning/training to examine whether preference for the smell changes due to the learning/training.
As drugs, melatonin, N(1)-acetyl-N(2)-formyl-5-methoxykynuramine (AFMK), N(1)-acetyl-5-methoxykynuramine (AMK), 6-Hydroxymelatonin (6-HM), L-kynurenine, kynuramine, 8-Bromoguanoine 3′,5′-cyclic monophosphate sodium salt (8 br-cGMP) and cycloheximide (CHX) were used. Melatonin, 6-HM, kynurenine, kynuramine and 8br-cGMP were purchased from SIGMA Aldrich, AFMK was purchased from Cayman Chemical, AMK was purchased from Toronto Research Chemicals and CHX was purchased from Wako Pure Chemical Industries. The drugs other than 8br-cGMP and CHX were first dissolved in ethanol and then diluted with physiological saline for crickets to the respective concentrations. In the administration experiment, 3 μl was administered using a 10-μl syringe to the brain via an aperture opened through a simple eye of the head.
PI values were tested before the training and a day after the training in the same group by a Wilcoxon's-test.

[3] = tested on: aged crickets; assay: Olfactory associative learning test in aged crickets (age-related memory disorder, training four times); assay type: in vivo, Gryllus bimaculatus; settings: 1 μM, 3 μl
Procedure: Male crickets about one week old (young) or three week old (aged) following molting into adult forms were used. Each of the crickets was placed into a 100 ml beaker three days before the experiment, and deprived of water for 2-3 days to enhance the desire of taking water. As the feed, about 10 pieces of insect feed were placed into the beaker. A 1-ml syringe was used for smell and reward associative conditioning upon learning/training. The syringe contained water as the reward while a piece of paper (3 mm×3 mm) perfumed with peppermint essence was pierced into the needle to about 1 cm from the tip thereof. In this learning/training, the filter paper on the needle was brought near the antennae of the cricket to allow it to smell for 3 seconds and then a drop of water was put out from the tip of the needle and applied to the mouth of the cricket. When the associative conditioning was conducted for four times, the conditionings were conducted at intervals of 5 minutes. Smell preference was examined by placing each cricket into a test arena. The arena consisted of a “standby chamber” and a “test chamber”. […] The smell source was a plastic pot containing filter paper perfumed with essence of a smell (peppermint or vanilla) and covered with a gauze lid. In the preference test, each cricket was placed into the test chamber and allowed to walk freely for 4 minutes to search for the two smell sources. Two minutes after the start of the test, a rotary board having the smell sources was rotated to reverse the positions of the vanilla and the peppermint smells. During the test, the time the cricket spent placing its mouth to the gauze of the smell source was measured as a visiting time to the smell source, and the ratio of the visiting times of the two types of smells (PI value: preference index) was calculated according to the following formula to assess the relative preference to the mint smell. PI value=Tp/(Tp+Tv)×100 • Tp: Searching time for smell associated with the reward (peppermint) • Tv: Searching time for smell not associated with the reward (vanilla) If the preferences for the two smells are equivalent, PI will be 50. Since crickets inherently prefer vanilla smell over peppermint smell, an average PI value prior to the learning/training is usually 25-35, The preference test was conducted before and after the learning/training to examine whether preference for the smell changes due to the learning/training. […] Melatonin, 6-HM, kynurenine, kynuramine and 8br-cGMP were purchased from SIGMA Aldrich, AFMK was purchased from Cayman Chemical, AMK was purchased from Toronto Research Chemicals and CHX was purchased from Wako Pure Chemical Industries. The drugs other than 8br-cGMP and CHX were first dissolved in ethanol and then diluted with physiological saline for crickets to the respective concentrations. In the administration experiment, 3 μl was administered using a 10-μl syringe to the brain via an aperture opened through a simple eye of the head. PI values were tested before the training and a day after the training in the same group by a Wilcoxon's-test.

COc1ccc(N)c(C(=O)CCNC(C)=O)c1 [Compound 1, N-[3-(2-amino-5-methoxyphenyl)-3-oxopropyl]-acetamide]
crossing of the blood-brain barrier [1]: cross the blood-brain barrier | time to reach and act in the brain following intraperitoneal administration [1]: about 5 minutes | AMK concentration in hippocampus and perirhinal cortex as compared to the control group ([1]; within 5 minutes, thereafter decreased with time): significantly increased | long-term memory formation a day after the training ([2]; 8 nM, 3 μl to the brain, 20 minutes after single-time training): not | sufficient concentration relative to the concentration of melatonin ([2]; 40 nM AMK versus 5 μM melatonin): 1/125 | long-term memory formation a day after the training ([2]; 40 nM, 3 μl to the brain, 20 minutes after single-time training): formed | long-term memory formation a day after the training ([2]; 0.2 μM, 3 μl to the brain, 20 minutes after single-time training): formed | long-term memory formation a day after the training ([2]; 1 μM, 3 μl to the brain, 20 minutes after single-time training): formed | long-term memory formation a day after the training ([2]; 1 μM, 3 μl, administered between 20 minutes and 80 minutes after single-time training): a long-term memory was formed | long-term memory formation a day after the training ([2]; 5 μM, 3 μl to the brain, 20 minutes after single-time training, listed as AMK): long-term memories were formed | long-term memory formation a day after the training ([2]; 5 μM, 3 μl to the brain, 20 minutes before single-time training): long-term memories were formed | administration concentration sufficient to form long-term memory ([2]; 3 μl to the brain 20 minutes after single-time training): 40 nM | timing of administration sufficient to form long-term memory ([2]; time following the single-time training, melatonin and AFMK 5 μM, AMK 1 μM): up to 80 minutes | improvement in an age-related memory disorder ([3]; 20 minutes after training for four times): improvement in an age-related memory disorder was observed | long-term memory formation a day after the training (improvement of age-related memory disorder) ([3]; 20 minutes before training for four times): a long-term memory was formed
